As usually defined, the melting point is the temperature, or range, at which the solid turns liquid.

Where only a bound is given, the exact number is not on record here.

Regarding `Cc1cccc(C2(O)c3cc(NC(=O)CC(C)(C)C)c(C)c(C)c3OC2(C)C)c1` (stereo not given), the melting point is 113 to 114 °C.

`CC(C)C(=O)N1CCC(NC(=O)c2ccccc2Oc2ccc(Cl)cc2Cl)CC1` displayed a melting point of 51 to 54 °C.

For the compound `COc1ccc(C2=NN(c3csc(C)n3)C(=O)[C@H]3CCCC[C@@H]23)cc1OC` (relative stereo), the melting point lay within 135 to 137 °C.

The compound `COC(=O)CCc1ccc(C(c2cc(F)ccc2F)S(=O)(=O)c2ccc(Cl)cc2)nc1` (stereo not given) gave a melting point of 121 to 123 °C.

In turn, `OC1(c2ccc(-c3ccc(F)cc3)cc2)CN2CCC1CC2` (stereo not given) displayed a melting point of 172 to 173 °C.

Turning to `CCC(CO)Nc1ccc(Cl)cc1[N+](=O)[O-]` (stereo not given), the melting point was 45 °C.

`COc1ccc(CC(NC(c2ccccc2)c2ccccc2)P(O)O)cc1OC` (stereo not given) gave a melting point of 205 °C.

In the case of `CC(C)(C)c1cc(SCCC(=O)N2CCOCC2)cc(C(C)(C)C)c1O`, the melting point was in the range of 136 to 138 °C.

For `COC(=O)C[C@H](O)CC(=O)C=Cc1c(-c2ccc(F)cc2)c(-c2ccc(F)cc2)c(C(=O)Nc2ccc(S(N)(=O)=O)cc2)n1C(C)C`, the melting point is 109 to 110 °C.

In turn, `OCC1Cc2c([nH]c3ccccc23)CN1` (stereo not given) returned a melting point of 191 to 193 °C.

With `O=C(Nc1nc(-c2ccccc2)c(-c2nc3ccccc3c(=O)n2-c2ccccc2Cl)s1)c1ccccc1`, the melting point lay in the range of 212 to 214 °C.

Turning to `Cc1c(C(=O)c2cnn(C(C)(C)C)c2O)ccc(S(C)(=O)=O)c1C1=NOC2CC12` (stereo not given), the melting point was 69 to 74 °C.

For the compound `COc1ccc(CC(=O)NC(C)(C)C(O)c2ccccc2)cc1OC` (stereo not given), the melting point lay in the range of 123 to 124 °C.

Turning to `COc1ccc(OC)c2c1C(=O)C=C(SCCCO)C2=O`, the melting point is 125 to 126 °C.

Regarding `Cc1cccc(-c2n[nH]cc2-c2ccc(F)c(-c3cnc(C(C)(C)O)s3)c2)n1`, the melting point fell in the range of 208 to 210 °C.

Turning to `Oc1cccc(CN2CCCC2)c1`, the melting point was 100 to 102 °C.

The compound `CC(=O)OC1CSC(Oc2cncc(-c3ccc(C#N)c(C)c3)c2)C(OC(C)=O)C1OC(C)=O` (stereo not given) displayed a melting point of 74 to 80 °C.

Regarding `N#CCNC(=O)c1ccc(Cl)cc1`, the melting point is 185 °C.

Consider `COc1ccc(S(=O)(=O)C2SC(=O)NC2=O)cc1` (stereo not given), for which the melting point is 93 to 95 °C.

Compound `C=CCc1c(O)c(C(=O)OC)cc(Cl)c1NC(C)=O` returned a melting point of 189 to 190 °C.

In turn, `CCOC1Nc2c(ccc(OC)c2OC(C)=O)C(=O)N2CCCC12` (stereo not given) came in with a melting point of 143 to 146 °C.

`CCc1c(-c2ccc(OCc3ccccc3)cc2)cn2cccc(CO)c12` had a melting point of 144 to 145 °C.

`CC(=O)ON1C(C)(C)CC(OC(=O)c2ccccc2C(=O)OC2CC(C)(C)N(OC(C)=O)C(C)(C)C2)CC1(C)C` returned a melting point of 172 to 175 °C.

`CCOCOCCCOn1cnc2cnc(N)nc21` gave a melting point of 73 to 74 °C.

Compound `CCCc1nc2c(N)nc3cc(Oc4ccccc4N)ccc3c2n1CC(C)C` displayed a melting point of 197 to 199 °C.

For the compound `CCCCCCCCCc1c(Cl)nc(-c2ccc(OC)c(F)c2)nc1Cl`, the melting point is 59 to 60 °C.

In turn, `CC(=O)c1sccc1CN1C(=O)C(NC(=O)Nc2cccc(C)c2)N=C(c2ccccc2F)c2ccccc21` (racemic) returned a melting point of 222 to 223 °C.

`CS(=O)(=O)c1ccc(-c2cnn(C3CCC3)c(=O)c2-c2ccc(F)cc2)cc1` displayed a melting point of 202 to 203 °C.

The compound `O=Cc1cccc(-c2nc3sccn3c2-c2ccnc(N[C@@H]3CCCN(S(=O)(=O)c4ccc(Cl)cc4)C3)n2)c1` showed a melting point of 124 to 126 °C.

The compound `COc1ccc(-c2cc3cc(F)c(F)cc3[nH]2)cc1NS(=O)(=O)c1cccs1` yielded a melting point of 211 to 213 °C.

Take `NC(=O)c1ccc(-c2ccc3nnn(Cc4ccc5ncccc5c4)c3n2)cc1Cl`: the melting point was in the range of 212 to 215 °C.

Regarding `Cc1cccc2c(=O)n([C@H](C)[C@](O)(Cn3cncn3)c3ccc(F)cc3F)cnc12`, the melting point was in the range of 141 to 144 °C.

Turning to `N#CCCCCn1ccc(NC(=S)NCC(F)(F)F)n1`, the melting point was in the range of 96 to 98 °C.

`COc1ccc(CSC2CNC(=O)C2)cc1` (stereo not given) had a melting point of 95 to 96 °C.

As to `CC1COC(C2CCC(O)C2)N1C(=O)c1ccccc1` (stereo not given), the melting point was 83 to 85 °C.

`CCOC(=O)C1=C(COCCNc2nc(N)n[nH]2)NC(C)=C(C(=O)OC)C1c1cccc(C(F)(F)F)c1Cl` (stereo not given) showed a melting point of 144 to 145 °C.

As to `COc1ccc(C(CN(C)C)C2(O)CCCCC2)cc1` (stereo not given), the melting point fell in the range of 78.3 to 79.5 °C.

In the case of `COC(=O)C1(S(=O)(=O)N2CCC(c3ccc(Br)c(C)c3)CC2)CCOCC1`, the melting point was in the range of 162 to 163 °C.

As to `COc1cc(OC)nc(NC(=O)NS(=O)(=O)Oc2ccccc2-c2csnn2)n1`, the melting point was 173 to 175 °C.

Compound `CC(=O)SCCNC(=O)[C@H](CSC(=O)C(C)(C)C)NC(=O)C(C)C` showed a melting point of 101 to 103 °C.

Turning to `C#CCN1CCC(N2C(=O)Nc3ccccc3C2c2ccccc2)CC1` (stereo not given), the melting point was 198 to 201 °C.

The compound `C=Cc1ccc(ON2C(=O)c3ccccc3C2=O)cc1` came in with a melting point of 129 to 131 °C.

In turn, `CC1(C)CC(=O)Nc2c(CCN3CCN(c4nsc5ccc(F)cc45)CC3)cc(F)cc21` gave a melting point of 191 °C.

`N#Cc1ccc2[nH]cc(CCN3C(=O)c4ccccc4C3=O)c2c1`: the melting point was 217 to 221 °C.

Take `CC1(C)NC(=O)N(CSc2cc(C(C)(C)C)c(O)c(C(C)(C)C)c2)C1=O`: the melting point was 160 to 162 °C.

Regarding `O=C(Nc1cc2ncc(CN3CCCC3)cc2cc1F)c1ccc(-c2ccc(OC(F)(F)F)cc2)cc1`, the melting point lay within 184 to 187 °C.

Consider `CCC(C)n1cc(Cl)nc(N2CCc3cc(OC)cc(Cl)c32)c1=O` (stereo not given), for which the melting point lay within 143 to 145 °C.

Compound `OCCCc1cc(-c2ccc(Cl)cc2)n(-c2ccc(Cl)nn2)n1` showed a melting point of 131 to 133 °C.

The compound `COc1cc(OC)c(C(=O)N2CCc3cc(O)ccc3C2)cc1OC` gave a melting point of 180 to 188 °C.

Compound `CCN1c2ncc(COc3ccc(C(=O)OC)cc3)cc2C(=O)N(C)c2ccc(Cl)nc21` gave a melting point of 196 to 197 °C.

Consider `COc1ccc2c(c1)C(=O)N(CCCN(C)CCN1C(=O)c3cc(OC)ccc3C(C)(C)C1=O)C(=O)C2(C)C`, for which the melting point fell in the range of 142 to 143 °C.

For the compound `Brc1ccc2nc(-c3ccccc3)nn2c1`, the melting point came out at 146 °C.

In turn, `COc1ccc(Nc2cccc3c2C(=O)N(C2CCC(=O)NC2=O)C3=O)cc1O` (stereo not given) had a melting point of 225 to 227 °C.

With `COc1cccc2c1c(=O)oc(=O)n2C`, the melting point was found to be 216 °C.

With `O=Cc1ccc(OC[C@H]2CCCN2c2ncnc3[nH]cnc23)c2ccccc12`, the melting point was 167 to 168 °C.

`CCCCNC[C@@H](O)[C@H](Cc1ccccc1)NC(=O)OCc1ccccc1`: the melting point fell in the range of 118 to 120 °C.

`CNc1ncnc2c1c(=O)n(C)c(=O)n2C` yielded a melting point of 178 to 179 °C.

Compound `CC(=O)Oc1ccc(-c2c3ccccc3cc3sc4ccccc4c23)cc1OC(C)=O` gave a melting point of 179 to 180 °C.

In turn, `COc1cccc(C(O)c2ccncc2)c1OC` (stereo not given) yielded a melting point of 126 to 128 °C.

Compound `O=c1cc(-c2ccccc2)oc(N2CCOCC2)c1` yielded a melting point of 148 to 150 °C.

Regarding `CCOC(=O)c1ccc(SC)c(Cl)c1N(CC)S(C)(=O)=O`, the melting point fell in the range of 70.5 to 73.5 °C.

As to `CCNC(=O)C1OC(n2cnc3c(NCC(c4ccccc4)c4ccccc4)nc(NC4CCCC4)nc32)C(O)C1O` (stereo not given), the melting point was in the range of 122 to 128 °C.

As for `CCOCCCN1C=Cc2cc(S(N)(=O)=O)sc2S1(=O)=O`, the melting point lay in the range of 131 to 132 °C.

Take `COC(=O)Cc1ccc2c(c1)C(=O)c1ccccc1CO2`: the melting point was in the range of 74 to 76 °C.

Compound `CCOC(=O)C(=Nc1ccc(OC)cc1)c1cccn1C` displayed a melting point of 83 to 85 °C.

For the compound `FC(F)(F)c1cccc2nc3c4ccccc4c4ccccc4c3nc12`, the melting point is 195 to 196 °C.

`Cc1ccc(S(=O)(=O)c2cn(C(=O)OC(C)(C)C)c3cc(-c4ccc(F)cc4)ccc23)cc1`: the melting point was determined as 135 °C.

For the compound `CC(CCl)(c1cc(Cl)nnc1Cl)C(Cl)Cl` (stereo not given), the melting point lay within 82 to 85 °C.

In turn, `COc1c(O)cc(C(C)(C)C)c(O)c1C(=O)Nc1ccc(S(=O)(=O)C(F)(F)F)cc1Cl` displayed a melting point of 171 to 175 °C.

`CCOC(=O)Cc1n[nH]c(=O)c2cc(Cl)c(Cl)cc12` yielded a melting point of 202 to 203 °C.

As for `Clc1ccc2nc(CN3CCC(c4ccccc4)CC3)cn2c1`, the melting point was 132 to 133 °C.

On to `O=C(c1ccc(O)c(Cl)c1)c1ccc(Cl)cc1Cl`, for which the melting point amounted to 145 °C.

In the case of `O=C(O)CCc1oc(Sc2nncn2-c2ccccc2)nc1-c1ccc(Cl)cc1`, the melting point was 122 to 123 °C.

Turning to `CN(C)S(=O)(=O)N1CCN(S(=O)(=O)c2ccc(-c3ccc(CC#N)cc3)s2)[C@@H](C(=O)NO)C1`, the melting point lay in the range of 170 to 172 °C.

The compound `Cc1cc(C)c(CC(C)CC(C(=O)C(CC(C)Cc2c(C)cc(C)cc2C)N2C(=O)c3ccccc3C2=O)N2C(=O)c3ccccc3C2=O)c(C)c1` (stereo not given) gave a melting point of 131 to 132 °C.

`COc1ccc(-c2c(C)ccn2-c2ccc(S(C)(=O)=O)cc2)cc1` registered a melting point of 131 to 132 °C.

The compound `CCC1CN(C2C(=O)N(c3c(Cl)cc(Cl)cc3Cl)N=C2NC(=O)c2cccc(NC(=O)COc3ccc(C(C)(C)CC)cc3C(C)(C)CC)c2)CCC1C` (stereo not given) returned a melting point of 145 to 155 °C.

`O=C1NC(=O)c2c1c(O)nc1cc(Cl)ccc21` displayed a melting point above 350 °C.

`COc1cc2c(cc1Nc1ncc(Cl)c(Nc3ccccc3OCC#N)n1)CCN(CC(=O)N(C)C)CC2` yielded a melting point of 77 to 93 °C.

`CS(=O)(=O)c1ccc(-n2nc(C(F)(F)F)cc2-c2ccc(-c3ccco3)c(Cl)c2)cc1` showed a melting point of 143 to 145 °C.

On to `Cc1[nH]c(=O)c(C#N)cc1-c1ccccc1OCCCC(=O)O`, for which the melting point was 218 to 220 °C.

In turn, `CCC(=O)c1cc2c(cc1O)CCCC2` had a melting point of 57 to 58 °C.

`Cc1cc(C)c(S(=O)(=O)OCCCCOS(=O)(=O)c2c(C)cc(C)cc2C)c(C)c1`: the melting point turned out to be 109 °C.

`CC1(C)OC(=S)Nc2ccc(-c3ccc(F)c(Cl)c3)cc21` registered a melting point of 196 to 197 °C.

`COC(=O)CCCCCCCCOC1OC(CO)C(O)C(O)C1O` (stereo not given) gave a melting point of 104 to 105 °C.

These data come from a melting point compilation (Tetko et al.; mined from patent text by program, amines drawn as free bases though some values may be those of a salt).
